Read-outs that look alike come from different tables or passages of the source.
Legend:
[1] = system: PARP-DNA complexes; details: compared with veliparib; cited from earlier work
[2] = system: BT20; assay: Cell survival (CellTiter-Glo) after SN-38 and/or PARP inhibitor; format: cell-based; details: for IC50: Homo sapiens
Procedure: (§1) Cells were plated at 1000 cells/well and then incubated for 24 hours. […] The plates were then allowed to incubate for 72 hours period. After the 72 hour incubation period the media was removed and cell viability was determined using the CellTiter-Glo® cell viability assay (Promega, Madison Wis.) according to the product instructions.

[3] = system: HCC1187; assay: as above; format: cell-based; details: for IC50: Homo sapiens
Procedure: as §1

[4] = system: BT549; assay: as above; format: cell-based; details: for IC50: Homo sapiens
Procedure: as §1

[5] = system: HCC38; assay: as above; format: cell-based; details: HCC38, single agent; for IC50: Homo sapiens, read-out: IC50 log10 (converted)
Procedure: as §1

[6] = system: HCC1806; assay: as above; format: cell-based; details: Exp. 1, single agent
Procedure: as §1

[7] = system: SUM159PT; assay: as above; format: cell-based; details: for IC50: Homo sapiens, SUM-159-PT
Procedure: as §1

[8] = system: PAR; details: Table 2B, unit inferred; cited from earlier work
[9] = target: tankyrase-1 (Homo sapiens, UniProt O95271); details: cell-free assays; cited from earlier work
Sequence of tankyrase-1 (O95271 whole entry, species assumed): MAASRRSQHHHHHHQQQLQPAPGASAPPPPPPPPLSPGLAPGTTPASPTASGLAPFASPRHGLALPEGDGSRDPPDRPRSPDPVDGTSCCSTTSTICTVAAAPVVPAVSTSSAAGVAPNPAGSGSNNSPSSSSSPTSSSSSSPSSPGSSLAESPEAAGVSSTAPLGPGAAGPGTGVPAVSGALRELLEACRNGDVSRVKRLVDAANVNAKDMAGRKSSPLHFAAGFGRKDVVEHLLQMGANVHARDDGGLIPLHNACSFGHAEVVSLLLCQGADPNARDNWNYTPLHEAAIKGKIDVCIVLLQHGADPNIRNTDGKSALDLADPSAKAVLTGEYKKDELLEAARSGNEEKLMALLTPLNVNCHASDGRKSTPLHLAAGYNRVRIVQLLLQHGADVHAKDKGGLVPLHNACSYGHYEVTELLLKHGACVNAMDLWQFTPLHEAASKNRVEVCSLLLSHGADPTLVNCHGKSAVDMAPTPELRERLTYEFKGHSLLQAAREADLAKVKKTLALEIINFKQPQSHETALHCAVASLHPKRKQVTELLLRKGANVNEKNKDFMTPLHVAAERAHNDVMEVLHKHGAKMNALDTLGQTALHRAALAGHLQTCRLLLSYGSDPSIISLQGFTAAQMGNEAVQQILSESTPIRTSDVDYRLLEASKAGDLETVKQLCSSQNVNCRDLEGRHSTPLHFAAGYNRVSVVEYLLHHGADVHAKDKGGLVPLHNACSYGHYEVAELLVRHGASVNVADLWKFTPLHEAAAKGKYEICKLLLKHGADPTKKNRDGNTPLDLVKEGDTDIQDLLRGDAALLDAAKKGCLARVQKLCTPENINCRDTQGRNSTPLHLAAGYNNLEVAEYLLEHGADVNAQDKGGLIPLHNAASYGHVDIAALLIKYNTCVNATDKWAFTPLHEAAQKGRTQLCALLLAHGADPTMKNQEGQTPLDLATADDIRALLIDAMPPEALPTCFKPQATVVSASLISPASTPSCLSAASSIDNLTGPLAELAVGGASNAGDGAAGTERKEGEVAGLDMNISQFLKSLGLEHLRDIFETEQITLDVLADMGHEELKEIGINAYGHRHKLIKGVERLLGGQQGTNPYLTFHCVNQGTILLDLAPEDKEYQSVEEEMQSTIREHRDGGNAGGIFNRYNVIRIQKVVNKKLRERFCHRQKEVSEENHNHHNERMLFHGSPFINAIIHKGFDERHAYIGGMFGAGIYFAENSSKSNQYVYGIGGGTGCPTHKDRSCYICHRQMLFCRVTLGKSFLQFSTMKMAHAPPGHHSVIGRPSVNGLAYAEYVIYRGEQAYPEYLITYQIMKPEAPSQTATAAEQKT

[10] = system: NCI-H1048 small cell lung cancer cells; assay: % cell number over time, SN-38 with PARP inhibitors; format: cell-based; details: SN-38 at 2 nM; NCI-H1048 SCLC cells
[11] = system: small cell lung cancer (SCLC), pancreatic cancer and breast cancer cell lines; assay: Growth inhibition, SN-38 with PARP inhibitors; format: cell-based; details: 2 nM SN-38
[12] = system: CFPAC-1 pancreatic cancer cells; assay: % cell number over time, SN-38 with PARP inhibitors; format: cell-based; details: SN-38 at 2 nM
[13] = Estimated tumor range
[14] = system: DMS-114 small cell lung cancer cells; assay: % cell number over time, SN-38 with PARP inhibitors; format: cell-based; details: SN-38 at 2 nM; DMS-114 SCLC cells
[15] = system: SUM149PT; assay: Cell survival (CellTiter-Glo) after SN-38 and/or PARP inhibitor; format: cell-based; details: for IC50: Homo sapiens
Procedure: as §1

[16] = system: cancer cells; assay: Active range based on XTC008
[17] = system: HCC1954; assay: Cell survival (CellTiter-Glo) after SN-38 and/or PARP inhibitor; format: cell-based; details: HCC1954, single agent
Procedure: as §1

[18] = system: HT-29 colorectal cancer (CRC) tumor xenograft; assay: Tumor SN-38 and tumor response in HT-29 xenograft-bearing mice; format: in vivo
Procedure: The duration of tumor exposure to the topoisomerase 1 inhibitor SN-38 above a threshold minimum concentration (e.g., 120 nM) correlated with antitumor activity of the liposomal irinotecan. […] For example, FIG. 13B depicts tumor content of SN-38 in multiple murine cervical cancer models. […] Levels of SN-38 of 120 nM were identified as the SN-38 tumor concentration required to yield tumor response.

[19] = system: C33A cervical cancer xenograft; assay: C33A cervical cancer xenograft model; details: liver, spleen, colon, plasma versus tumors
[20] = system: human plasma proteins; details: cited from earlier work
[21] = system: HT-29; assay: In vitro SN-38 effect on cell line (GI50); format: cell-based; details: HT-29, in vitro
[22] = system: HCC70; assay: Cell survival (CellTiter-Glo) after SN-38 and/or PARP inhibitor; format: cell-based; details: Exp. 2, single agent
Procedure: as §1

[23] = system: SKBR3; assay: as above; format: cell-based; details: Exp. 4, single agent
Procedure: as §1

[24] = read-out: IC50 log10 (μM) (converted)

## NC(=O)c1cccc2cn(-c3ccc([C@@H]4CCCNC4)cc3)nc12 [Niraparib]
[1]
  potency at PARP trapping: much more potent at PARP trapping than veliparib
[2]; BT20, Exp. 1, single agent
  Maximum Kill Percent: 100%
[2]; BT-20, BT20, Exp. 1, single agent, read-out: IC50 log10 (converted)
  IC50: 138 µM
[3]; HCC1187, Exp. 1, single agent
  Maximum Kill Percent: 98%
[3]; HCC1187, Exp. 1, single agent, read-out: IC50 log10 (converted)
  IC50: 129 µM
[4]; BT549, Exp. 1, single agent
  Maximum Kill Percent: 100%
[4]; BT-549, BT549, Exp. 1, single agent, read-out: IC50 log10 (converted)
  IC50: 107 µM
[5]; Exp. 1
  Maximum Kill Percent: 100%
  IC50: 17 µM
[6]
  Maximum Kill Percent: 100%
[6]; Homo sapiens, read-out: IC50 log10 (converted)
  IC50: 18.6 µM
[7]; SUM159PT, Exp. 1, single agent, read-out: IC50 log10 (converted)
  IC50: 2.24 µM
[7]; SUM159PT, Exp. 1, single agent
  Maximum Kill Percent: 97%

## O=C(c1cc(Cc2n[nH]c(=O)c3ccccc23)ccc1F)N1CCN(C(=O)C2CC2)CC1 [Olaparib]
[8]
  EC50: 0.0036 µM
[9]
  less effective against tankyrase-1 than against PARP 1/2: 300 times
[10]
  sensitivity of cells to combination with SN-38: very sensitive
[11]
  growth inhibition of the cancer cells in combination with SN-38: additive/synergistic growth inhibition
[12]
  effect of combination with SN-38: Additive/synergistic effects
[13]
  Estimated tumor range: 8 µM
[14]
  effect of combination with SN-38: Additive/synergistic effects
[2]; BT-20, read-out: IC50 log10 (μM) (converted)
  IC50: 17.4 µM
[3]; HCC1187, read-out: IC50 log10 (μM) (converted)
  IC50: 257 µM
[15]; [24]
  IC50: 251 µM
[4]; BT-549, read-out: IC50 log10 (μM) (converted)
  IC50: 110 µM
[7]; [24]
  IC50: 1.51 µM

## CNCc1ccc(-c2[nH]c3cc(F)cc4c3c2CCNC4=O)cc1 [Rucaparib]
[8]
  EC50: 0.0047 µM
[10]
  sensitivity of cells to combination with SN-38: very sensitive
[16]; (Panc)
  Active Range based on XTC008: 1 to 100 nM
[11]
  growth inhibition of the cancer cells in combination with SN-38: additive/synergistic growth inhibition
[12]
  effect of combination with SN-38: Additive/synergistic effects
[13]
  Estimated tumor range: <6 µM
[14]
  effect of combination with SN-38: Additive/synergistic effects
[2]; BT20, Exp. 3, single agent
  Maximum Kill Percent: 100%
[2]; BT-20, BT20, Exp. 3, single agent, read-out: IC50 log10 (converted)
  IC50: 18.6 µM
[15]; Exp. 3, single agent
  Maximum Kill Percent: 99%
[15]; Exp. 3, single agent, read-out: IC50 log10 (converted)
  IC50: 47.9 µM
[17]; Exp. 3
  Maximum Kill Percent: 100%
[17]; Homo sapiens, Exp. 3, read-out: IC50 log10 (converted)
  IC50: 39.8 µM
[4]; BT549, Exp. 3, single agent
  Maximum Kill Percent: 100%
[4]; BT-549, BT549, Exp. 3, single agent, read-out: IC50 log10 (converted)
  IC50: 56.2 µM
[5]; Exp. 3
  Maximum Kill Percent: 87%
  IC50: 0.851 µM
[7]; SUM159PT, Exp. 3, single agent, read-out: IC50 log10 (converted)
  IC50: 0.851 µM
[7]; SUM159PT, Exp. 3, single agent
  Maximum Kill Percent: 97%

## CCc1c2c(nc3ccc(O)cc13)-c1cc3c(c(=O)n1C2)COC(=O)[C@]3(O)CC [SN-38]
[18]
  SN-38 tumor concentration required to yield tumor response: 120 nM
[19]
  differential tissue levels at 24 and 72 hours: cleared faster from the liver, spleen, colon, and plasma, than from tumors
[20]
  plasma protein binding: approximately 95%
[16]
  Active Range based on XTC008: 1 to 50 nM
[21]
  GI50: ~0.06 µM
[13]; (398)
  Estimated tumor range: 0.003 to 0.163 µM
[13]; IRI
  Estimated tumor range: IRI < 200 nM
[2]; BT20, Exp. 1, single agent
  IC50 log10 (μM): −0.18 log10 (μM)
  Maximum Kill Percent: 100%
[2]; BT20, Exp. 2, single agent
  IC50 log10 (μM): −0.69 log10 (μM)
  Maximum Kill Percent: 100%
[2]; BT20, Exp. 3, single agent
  IC50 log10 (μM): −0.37 log10 (μM)
  Maximum Kill Percent: 100%
[2]; BT20, Exp. 4, single agent
  IC50 log10 (μM): −0.24 log10 (μM)
  Maximum Kill Percent: 100%
[22]
  IC50 log10 (μM): −0.07 log10 (μM)
  Maximum Kill Percent: 97%
[3]; HCC1187, Exp. 1, single agent
  IC50 log10 (μM): −0.68 log10 (μM)
  Maximum Kill Percent: 90%
[3]; HCC1187, Exp. 2, single agent
  IC50 log10 (μM): −0.64 log10 (μM)
  Maximum Kill Percent: 100%
[3]; HCC1187, Exp. 4, single agent
  IC50 log10 (μM): −0.98 log10 (μM)
  Maximum Kill Percent: 88%
[15]; Exp. 2, single agent
  IC50 log10 (μM): 0.24 log10 (μM)
  Maximum Kill Percent: 96%
[15]; Exp. 3, single agent
  IC50 log10 (μM): 0.27 log10 (μM)
  Maximum Kill Percent: 95%
[17]; Exp. 3
  IC50 log10 (μM): −0.97 log10 (μM)
  Maximum Kill Percent: 94%
[17]; Exp. 4
  IC50 log10 (μM): −0.65 log10 (μM)
  Maximum Kill Percent: 100%
[4]; BT549, Exp. 1, single agent
  IC50 log10 (μM): −0.10 log10 (μM)
  Maximum Kill Percent: 95%
[4]; BT549, Exp. 2, single agent
  IC50 log10 (μM): −0.04 log10 (μM)
  Maximum Kill Percent: 93%
[4]; BT549, Exp. 3, single agent
  IC50 log10 (μM): −0.05 log10 (μM)
  Maximum Kill Percent: 94%
[5]; Exp. 1
  IC50 log10 (μM): −2.80 log10 (μM)
  Maximum Kill Percent: 96%
[5]; Exp. 3
  IC50 log10 (μM): −2.89 log10 (μM)
  Maximum Kill Percent: 92%
[5]; Exp. 4
  IC50 log10 (μM): −2.75 log10 (μM)
  Maximum Kill Percent: 92%
[23]
  IC50 log10 (μM): −1.38 log10 (μM)
  Maximum Kill Percent: 88%
[6]
  IC50 log10 (μM): −2.08 log10 (μM)
  Maximum Kill Percent: 93%
[7]; SUM159PT, Exp. 1, single agent
  IC50 log10 (μM): −2.35 log10 (μM)
  Maximum Kill Percent: 97%
[7]; SUM159PT, Exp. 2, single agent
  IC50 log10 (μM): −2.39 log10 (μM)
  Maximum Kill Percent: 97%
[7]; SUM159PT, Exp. 3, single agent
  IC50 log10 (μM): −2.66 log10 (μM)
  Maximum Kill Percent: 99%
[7]; SUM159PT, Exp. 4, single agent
  IC50 log10 (μM): −2.33 log10 (μM)
  Maximum Kill Percent: 96%
